Experimental data as given in ChEMBL document CHEMBL3217602, “20-O-IngenolEZ, a catalytic topoisomerase II inhibitor, specifically inhibits cell proliferation and induces double-strand DNA breaks in BLM-/- cells” (2011).
Activity calls are given as the source filed them. The rule behind the calls is not given here.

Assays:
DT40 [1] = assay: Inhibition of chicken WRN-/- DT40 cell proliferation at 200 uM after 2 days by MTT assay; type: functional, cell-based; conditions: Gallus gallus
DT40 [2] = assay: Inhibition of chicken BLM-/- DT40 cell proliferation at 200 uM after 2 days by MTT assay; type: functional, cell-based; conditions: Gallus gallus
DT40 [3] = assay: (§1) Inhibition of chicken wild type DT40 cell proliferation at 200 uM after 2 days by MTT assay; type: functional; conditions: Gallus gallus
DT40 [4] = assay: Induction of double-strand DNA breaks in chicken BLM-/- DT40 cell nuclear fraction assessed as gamma-H2AX phosphorylation at 0.9 uM after 24 hrs by immunoblot analysis; type: functional, cell-based; conditions: Gallus gallus
[5] = Induction of apoptosis in chicken BLM-/- DT40 cells at 0.9 uM after 24 hrs by DAPI staining based immunofluorescence assay; type: functional, Gallus gallus
DT40 [6] = assay: Inhibition of chicken WRN-/- DT40 cell proliferation at 2 to 100 uM after 2 days by MTT assay; type: functional, cell-based; conditions: Gallus gallus
DT40 [7] = assay: Inhibition of chicken BLM-/- DT40 cell proliferation at 2 to 60 uM after 2 days by MTT assay; type: functional, cell-based; conditions: Gallus gallus
DT40 [8] = assay: Inhibition of chicken BLM-/- DT40 cell proliferation at 100 uM after 2 days by MTT assay; type: functional, cell-based; conditions: Gallus gallus
DT40 [9] = assay: Inhibition of chicken wild type DT40 cell proliferation at 2 to 100 uM after 2 days by MTT assay; type: functional, cell-based; conditions: Gallus gallus
[10] = as §1; type: functional; conditions: Gallus gallus, DT40, 48 h
DT40 [11] = assay: Induction of double-strand DNA breaks in chicken BLM-/- DT40 cell nuclear fraction assessed as gamma-H2AX phosphorylation at 200 uM after 24 hrs by immunoblot analysis; type: functional, cell-based; conditions: Gallus gallus
DT40 [12] = assay: Induction of apoptosis in chicken BLM-/- DT40 cells at 200 uM after 24 hrs by DAPI staining based immunofluorescence assay; type: functional, cell-based; conditions: Gallus gallus

With `C[C@H]([C@H](C)N1CC(=O)NC(=O)C1)N1CC(=O)NC(=O)C1` the inhibition (DT40 [1]) was “Active”, the inhibition (DT40 [2]) was “Active” and the inhibition (DT40 [3]) was “Active”.
For `COc1cccc2c1C(=O)c1c(O)c3c(c(O)c1C2=O)C[C@@](O)(C(=O)CO)C[C@@H]3O[C@H]1C[C@H](N)[C@H](O)[C@H](C)O1` [DOXORUBICIN], the Activity (DT40 [4]) was “Active” and the Activity [5] was 60%.
For `CCCCC/C=C\C=C\C(=O)OCC1=C[C@@H]2C(=O)[C@]3(C=C(C)[C@H](O)[C@@]3(O)[C@@H]1O)[C@H](C)C[C@@H]1[C@H]2C1(C)C`, the inhibition (DT40 [6]) was “inactive”, the inhibition (DT40 [7]) was “inactive” and the inhibition (DT40 [8]) was “Active”. The inhibition (DT40 [1]) was “inactive”, the inhibition (DT40 [2]) was “Active” and the inhibition (DT40 [9]) was “inactive”. For the same molecule, the inhibition at 200 µM [10] was 50%, the Activity (DT40 [11]) was “Active” and the Activity (DT40 [12]) was “Active”.
